Laboratory results taken from publication PMC3871271 (FEBS Open Bio, 2013).
Entries after “also recorded” stand apart in the source; their conditions may differ. Where two headings read alike, the source gives them in different places. One block for each molecule: values may come before it.

Columns and labels:
[1] = tested on: C-SdCen F109L-E144A; assay: ITC binding of target peptides to C-SdCen F109L-E144A; design: species or system Scherffelia dubia; conditions: for effect of F109L-E144A mutation on binding (in words): F109L-E144A vs WT and single mutants; for TΔS / ΔG: F109L-E144A, pH 7.5; for TΔS: from ΔG = ΔH − TΔS; for ΔG: ΔG = −RTln(1/Ka); for ΔΔH: difference in binding enthalpy SdCen wt vs F109L-E144A; for ΔΔH / ΔΔG: EDTA 2 mM; for ΔΔG: difference in free energy SdCen wt vs F109L-E144A
[2] = tested on: C-SdCen WT (C-terminal domain M93-F168 of SdCen); assay: ITC binding of target peptides to wild-type C-SdCen; design: species or system Scherffelia dubia; conditions: for TΔS / ΔG / Ka / ΔH: pH 7.5; for TΔS: from ΔG = ΔH − TΔS; for ΔG: ΔG = −RTln(1/Ka); for effect of calcium on binding (in words): presence vs absence of calcium; for Ka / ΔH: MOPS 50 mM, NaCl 100 mM, SD of fit in parenthesis
[3] = tested on: C-SdCen E144A; assay: ITC binding of target peptides to C-SdCen E144A; design: species or system Scherffelia dubia; conditions: for TΔS / ΔG: pH 7.5; for TΔS: from ΔG = ΔH − TΔS; for ΔG: ΔG = −RTln(1/Ka); for ΔΔH: difference in binding enthalpy SdCen wt vs E144A; for ΔΔH / ΔΔG: EDTA 2 mM; for ΔΔG: difference in free energy SdCen wt vs E144A; for factor of decrease in affinity by E144A: absence of calcium
[4] = tested on: C-SdCen F109L; assay: ITC binding of target peptides to C-SdCen F109L; design: species or system Scherffelia dubia; conditions: for effect of F109L mutation on binding (in words) / factor of increase in change in enthalpy (ΔH) / factor of reduction of binding constant by F109L / factor of decrease in Ka by F109L: F109L vs WT; for factor of increase in change in enthalpy (ΔH) / factor of reduction of binding constant by F109L: EDTA; for factor of decrease in Ka by F109L: temperature not stated; for TΔS / ΔG: F109L, pH 7.5; for TΔS: from ΔG = ΔH − TΔS; for ΔG: ΔG = −RTln(1/Ka); for ΔΔH: difference in binding enthalpy SdCen wt vs F109L; for ΔΔH / ΔΔG: EDTA 2 mM; for ΔΔG: difference in free energy SdCen wt vs F109L
[5] = target: T1, C-terminal domain of Scherffelia dubia centrin, wild type (Scherffelia dubia, UniProt Q06827 93-168); assay: ITC
T1 sequence (looked up): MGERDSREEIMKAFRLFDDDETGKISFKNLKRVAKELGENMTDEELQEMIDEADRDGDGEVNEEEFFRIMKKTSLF

[6] = target: T1, C-terminal domain of Scherffelia dubia …; assay: ITC; remark: listed apart in the source
[7] = WT, EDTA, 30 °C to 37 °C, becoming more negative
[8] = E144A, 30 °C, no Ca2+ (EDTA 2 mM)
[9] = E144A, 37 °C, no Ca2+ (EDTA 2 mM)

TΔS ([1]; 30 °C, no Ca2+ (EDTA 2 mM)): -16.33 kcal/mol
ΔG ([1]; 30 °C, no Ca2+ (EDTA 2 mM)): -8.07 kcal/mol
TΔS ([1]; 37 °C, no Ca2+ (EDTA 2 mM)): -18.24 kcal/mol
ΔΔH ([1]; 30 °C): -7.1 kcal/mol
ΔΔH ([1]; 37 °C): -10.66 kcal/mol
ΔΔG ([1]; 30 °C): -1.19 kcal/mol
ΔΔG ([1]; 37 °C): -1.12 kcal/mol
effect of temperature increase (in words) ([2]; WT, 30 °C to 37 °C, XPC vs Sfi1): a more pronounced effect on Sfi1
TΔS ([2]; WT, 30 °C, no Ca2+ (EDTA 2 mM)): -22.24 kcal/mol
ΔG ([2]; WT, 30 °C, no Ca2+ (EDTA 2 mM)): -9.26 kcal/mol
TΔS ([2]; WT, 37 °C, no Ca2+ (EDTA 2 mM)): -27.78 kcal/mol
factor of decrease in binding on temperature increase ([2]; WT, EDTA, 30 °C to 37 °C): 4
factor of decrease in TΔS on temperature increase [2, 7]: 1.3
factor of decrease in ΔH on temperature increase [2, 7]: 1.2
effect of E144A mutation on binding (in words) ([3]; E144A vs WT, listed as Sfi1): had no effect on Sfi1 binding
TΔS [3, 8]: -21.06 kcal/mol
ΔG [3, 8]: -9.25 kcal/mol
TΔS [3, 9]: -26.88 kcal/mol
ΔΔH ([3]; 30 °C): -1.19 kcal/mol
ΔΔH ([3]; 37 °C): -0.87 kcal/mol
ΔΔG ([3]; 30 °C): -0.01 kcal/mol
factor of increase in change in enthalpy (ΔH) ([4]; 30 °C): 1.4
factor of reduction of binding constant by F109L ([4]; 30 °C): 6
factor of increase in change in enthalpy (ΔH) ([4]; 37 °C): 1.4
factor of reduction of binding constant by F109L ([4]; 37 °C): 6
factor of decrease in Ka by F109L [4]: 6
TΔS ([4]; 30 °C, no Ca2+ (EDTA 2 mM)): -14.96 kcal/mol
ΔG ([4]; 30 °C, no Ca2+ (EDTA 2 mM)): -8.24 kcal/mol
TΔS ([4]; 37 °C, no Ca2+ (EDTA 2 mM)): -22.3 kcal/mol
ΔG ([4]; 37 °C, no Ca2+ (EDTA 2 mM)): -8.1 kcal/mol
ΔΔH ([4]; 30 °C): -8.3 kcal/mol
ΔΔH ([4]; 37 °C): -6.69 kcal/mol
ΔΔG ([4]; 30 °C): -1.02 kcal/mol
ΔΔG ([4]; 37 °C): -1.21 kcal/mol
Molecule: 677-SQHNRQLLRGALRRWK-692 [R18-Sfi1]
effect of F109L-E144A mutation on binding (in words) [1]: exhibited the same behavior as wild-type SdCen at both temperatures
effect of calcium on binding (in words) ([2]; WT): the presence of calcium enhanced the binding
effect of calcium on binding (in words) ([2]; WT, listed as Sfi1): Calcium was not required for binding although its presence enhanced the binding
effect of E144A mutation on binding (in words) ([3]; E144A vs WT): no effect on the binding of C-SdCen to R18-Sfi1
effect of F109L mutation on binding (in words) [4]: reduced the binding; also recorded: decreased the binding

TΔS ([1]; 30 °C, Ca2+ 2 mM): -3.69 kcal/mol
ΔG ([1]; 30 °C, Ca2+ 2 mM): -10.42 kcal/mol
ΔG ([1]; 30 °C, no Ca2+ (EDTA 2 mM)): -7.81 kcal/mol
TΔS ([1]; 37 °C, Ca2+ 2 mM): -6.60 kcal/mol
ΔG ([1]; 37 °C, Ca2+ 2 mM): -10.59 kcal/mol
TΔS ([1]; 37 °C, no Ca2+ (EDTA 2 mM)): -13.21 kcal/mol
ΔΔH ([1]; 30 °C): -11.6 kcal/mol
ΔΔH ([1]; 37 °C): -19.4 kcal/mol
ΔΔG ([1]; 30 °C): -2.6 kcal/mol
ΔΔG ([1]; 37 °C): -2.67 kcal/mol
Ka ([2]; WT, 30 °C, Ca2+ 2 mM): 59.4(9.10) 10^6 M^−1
ΔH ([2]; WT, 30 °C, Ca2+ 2 mM): −23.4(0.16) kcal/mol
TΔS ([2]; WT, 30 °C, Ca2+ 2 mM): -12.63 kcal/mol
ΔG ([2]; WT, 30 °C, Ca2+ 2 mM): -10.77 kcal/mol
factor of higher affinity for P17-XPC than for R18-Sfi1 ([2]; WT, 30 °C, EDTA): 7
ΔG ([2]; WT, 30 °C, no Ca2+ (EDTA 2 mM)): -10.41 kcal/mol
Ka ([2]; WT, 37 °C, Ca2+ 2 mM): 73.2(7.0) 10^6 M^−1
ΔH ([2]; WT, 37 °C, Ca2+ 2 mM): −23.36(0.08) kcal/mol
TΔS ([2]; WT, 37 °C, Ca2+ 2 mM): -12.18 kcal/mol
ΔG ([2]; WT, 37 °C, Ca2+ 2 mM): -11.18 kcal/mol
factor of higher affinity for P17-XPC than for R18-Sfi1 ([2]; WT, 37 °C, EDTA): 10
TΔS ([2]; WT, 37 °C, no Ca2+ (EDTA 2 mM)): -29.94 kcal/mol
difference in ΔH between P17-XPC and R18-Sfi1 ([2]; WT, EDTA, 30 °C and 37 °C): 3 kcal/mol
factor of decrease in binding on temperature increase ([2]; WT, EDTA, 30 °C to 37 °C): 3
factor of decrease in ΔH on temperature increase [2, 7]: 1.2
factor of decrease in affinity by E144A ([3]; E144A vs WT, 30 °C): 3
factor of decrease in affinity by E144A ([3]; E144A vs WT, 37 °C): 4
ΔH compared to wild type (in words) ([3]; E144A vs WT, EDTA): the same as for the wild type
effect of E144A mutation on binding (in words) ([3]; E144A vs WT, listed as XPC): reduced the binding to XPC
TΔS ([3]; E144A, 30 °C, Ca2+ 2 mM): -9.36 kcal/mol
ΔG ([3]; E144A, 30 °C, Ca2+ 2 mM): -11.08 kcal/mol
TΔS [3, 8]: -19.78 kcal/mol
ΔG [3, 8]: -9.72 kcal/mol
TΔS ([3]; E144A, 37 °C, Ca2+ 2 mM): -13.76 kcal/mol
ΔG ([3]; E144A, 37 °C, Ca2+ 2 mM): -11.41 kcal/mol
TΔS [3, 9]: -28.66 kcal/mol
ΔΔH ([3]; 30 °C): -4.3 kcal/mol
ΔΔH ([3]; 37 °C): -2.2 kcal/mol
ΔΔG ([3]; 30 °C): -0.69 kcal/mol
factor of increase in change in enthalpy (ΔH) ([4]; 30 °C): 1.7
factor of reduction of binding constant by F109L ([4]; 30 °C): 15
factor of increase in change in enthalpy (ΔH) ([4]; 37 °C): 1.4
factor of reduction of binding constant by F109L ([4]; 37 °C): 15
factor of decrease in Ka by F109L [4]: 15
TΔS ([4]; 30 °C, Ca2+ 2 mM): -4.78 kcal/mol
ΔG ([4]; 30 °C, Ca2+ 2 mM): -10.85 kcal/mol
TΔS ([4]; 30 °C, no Ca2+ (EDTA 2 mM)): -11.88 kcal/mol
ΔG ([4]; 30 °C, no Ca2+ (EDTA 2 mM)): -8.72 kcal/mol
TΔS ([4]; 37 °C, Ca2+ 2 mM): -6.20 kcal/mol
ΔG ([4]; 37 °C, Ca2+ 2 mM): -10.77 kcal/mol
ΔΔH ([4]; 30 °C): -13.2 kcal/mol
ΔΔH ([4]; 37 °C): -17.44 kcal/mol
ΔΔG ([4]; 30 °C): -1.69 kcal/mol
ΔΔG ([4]; 37 °C): -2.03 kcal/mol
Molecule: 846-NWKLLAKGLLIRERLKR-863 [P17-XPC]
effect of F109L-E144A mutation on binding (in words) ([1]; listed as XPC): enhanced the negative effect of the two single mutations on XPC binding; also recorded: further reduced XPC binding
effect of calcium on binding (in words) ([2]; WT): the presence of calcium enhanced the binding
effect of calcium on binding (in words) ([2]; WT, listed as XPC): Calcium was not required for binding although its presence enhanced the binding; also recorded: addition of calcium enhanced the affinity
affinity comparison XPC vs Sfi1 (in words) ([2]; centrin, ITC, present and previous work): better for XPC than for other targets such as Sfi1
effect of calcium on affinity (in words) ([3]; E144A, presence vs absence of calcium): addition of calcium enhanced the affinity
effect of F109L mutation on binding (in words) ([4]; listed as XPC): reduced the binding; also recorded: decreased the binding

Ka [5]: 1.23e+06 M⁻¹
dH [5]: -37.1 kcal/mol
Ka [6]: 4.5e+06 M⁻¹
dH [6]: -31.5 kcal/mol
Molecule: Ac-SQHNRQLLRGALRRWK-NH2 [R18-HsSfi1 peptide]
